Reference: ChEMBL document CHEMBL1142817, “Modeling K(m) values using electrotopological state: substrates for cytochrome P450 3A4-mediated metabolism” (Bioorg Med Chem Lett, 2005)

Molecular target: Cytochrome P450 3A4 (Homo sapiens, UniProt P08684)
Assay: log (1/Km) value for human liver microsome cytochrome P450 3A4
Settings: microsomes

Chain of Cytochrome P450 3A4 (P08684 whole entry): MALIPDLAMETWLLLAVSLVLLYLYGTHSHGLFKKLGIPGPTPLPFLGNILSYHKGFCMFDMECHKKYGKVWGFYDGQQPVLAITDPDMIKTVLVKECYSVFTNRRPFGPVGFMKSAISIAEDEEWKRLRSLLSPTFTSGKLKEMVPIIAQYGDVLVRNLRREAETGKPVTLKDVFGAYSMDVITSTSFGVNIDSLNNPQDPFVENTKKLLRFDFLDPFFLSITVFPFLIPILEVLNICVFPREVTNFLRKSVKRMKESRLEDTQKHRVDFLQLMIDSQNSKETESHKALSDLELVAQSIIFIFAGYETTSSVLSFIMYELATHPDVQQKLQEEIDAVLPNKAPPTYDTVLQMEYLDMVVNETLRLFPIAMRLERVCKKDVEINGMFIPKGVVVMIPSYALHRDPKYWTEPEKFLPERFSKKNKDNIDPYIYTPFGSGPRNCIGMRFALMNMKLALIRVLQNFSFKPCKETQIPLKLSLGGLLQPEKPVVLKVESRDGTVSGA

Structure (SMILES)	Log 1/Km
C/C=C/c1ccc(OC)c(CN[C@H]2C3CCN(CC3)[C@H]2C(c2ccccc2)c2ccccc2)c1	-1.3424
CCCCN1CCCC[C@@H]1C(=O)Nc1c(C)cccc1C [BUPIVACAINE]	-2.0967
O=[N+]([O-])c1ccc2ccc3cccc4ccc1c2c34 [1-NITROPYRENE]	-0.5185
CC[C@H]1OC(=O)[C@H](C)[C@@H](O[C@H]2C[C@@](C)(OC)[C@@H](O)[C@H](C)O2)[C@H](C)[C@@H](O[C@@H]2O[C@H](C)C[C@H](N(C)C)[C@H]2O)[C@](C)(OC)C[C@@H](C)C(=O)[C@H](C)[C@@H](O)[C@]1(C)O [CLARITHROMYCIN]	-1.6875
Cc1c(C)c2c(c(C)c1O)CCC(C)(COc1ccc(CC3SC(=O)NC3=O)cc1)O2 (stereo not drawn) [TROGLITAZONE]	-2.7918
O=C(N[C@H](/C=C/S(=O)(=O)c1ccccc1)CCc1ccccc1)[C@H](Cc1ccccc1)NC(=O)N1CCOCC1	-1.4843
CO[C@H]1C[C@@H]2CC[C@@H](C)[C@@](O)(O2)C(=O)C(=O)N2CCCC[C@H]2C(=O)O[C@H]([C@H](C)C[C@@H]2CC[C@@H](O)[C@H](OC)C2)CC(=O)[C@H](C)/C=C(\C)[C@@H](O)[C@@H](OC)C(=O)[C@H](C)C[C@H](C)/C=C/C=C/C=C/1C [SIROLIMUS]	-0.9069
CN(C)c1ccc([C@H]2C[C@@]3(C)[C@@H](CC[C@@]3(O)/C=C\CO)[C@@H]3CCC4=CC(=O)CCC4=C32)cc1 [LILOPRISTONE]	-0.9445
CC[C@]1(O)C[C@@H]2CN(CCc3c([nH]c4ccccc34)[C@@](C(=O)OC)(c3cc4c(cc3OC)N(C)[C@H]3[C@@](O)(C(=O)OC)[C@H](OC(C)=O)[C@]5(CC)C=CCN6CC[C@]43[C@@H]65)C2)C1 [VINBLASTINE]	-0.834
CCc1c2c(nc3ccc(OC(=O)N4CCC(N5CCCCC5)CC4)cc13)-c1cc3c(c(=O)n1C2)COC(=O)[C@]3(O)CC [IRINOTECAN]	-1.2648
CN(C)CCC=C1c2ccccc2CCc2ccccc21 [AMITRIPTYLINE]	-1.8407
C[C@H](CCC(=O)NCCS(=O)(=O)O)[C@H]1CC[C@H]2[C@@H]3[C@H](O)C[C@@H]4C[C@H](O)CC[C@]4(C)[C@H]3CC[C@]12C [TAUROCHENODEOXYCHOLATE]	-1.9542
CN(C)c1ccc([C@H]2C[C@]3(C)[C@@H](CC[C@]3(O)CCCO)C3CCC4=CC(=O)CCC4=C32)cc1 (single isomer, unassigned) [ONAPRISTONE]	-1.2923
CC(C)(C)NCC(O)COc1cccc2c1CCC(=O)N2 (stereo not drawn) [CARTEOLOL]	-1.8432
CC[C@H]1OC(=O)[C@H](C)[C@@H](O[C@H]2C[C@@](C)(OC)[C@@H](O)[C@H](C)O2)[C@H](C)[C@@H](O[C@@H]2O[C@H](C)C[C@H](N(C)C)[C@H]2O)[C@](C)(O)C[C@@H](C)C(=O)[C@H](C)[C@@H](O)[C@]1(C)O [ERYTHROMYCIN]	-1.7853
C=CC[C@@H]1/C=C(\C)C[C@H](C)C[C@H](OC)[C@H]2O[C@@](O)(C(=O)C(=O)N3CCCC[C@H]3C(=O)O[C@H](/C(C)=C/[C@@H]3CC[C@@H](O)[C@H](OC)C3)[C@H](C)[C@@H](O)CC1=O)[C@H](C)C[C@@H]2OC [TACROLIMUS ANHYDROUS]	-0.792
C[C@]12CCC(=O)C=C1CC[C@@H]1[C@@H]2[C@@H](O)C[C@@]2(C)[C@H]1CC[C@]2(O)C(=O)CO [HYDROCORTISONE]	-1.1818
CCOc1ccc2ccc(=O)oc2c1 [ETHOXYCOUMARIN]	-3.4771
CN(C)Cc1nnc2n1-c1ccc(Cl)cc1C(c1ccccc1)=NC2 [ADINAZOLAM]	-1.9628

Structure (SMILES)	Log 1/Km
COc1ccc2[nH]c([S+]([O-])Cc3ncc(C)c(OC)c3C)nc2c1 (stereo not drawn) [OMEPRAZOLE]	-1.6902
ClC(Cl)Br [BROMODICHLOROMETHANE]	-1.4472
CO[C@H]1/C=C/O[C@@]2(C)Oc3c(C)c(O)c4c(c3C2=O)C2=NC3(CCN(CC(C)C)CC3)NC2=C(NC(=O)/C(C)=C\C=C\[C@H](C)[C@H](O)[C@@H](C)[C@@H](O)[C@@H](C)[C@H](OC(C)=O)[C@@H]1C)C4=O [RIFABUTIN]	-1.0373
Nc1ccc(S(=O)(=O)c2ccc(N)cc2)cc1 [DAPSONE]	-2.2304
CC(c1cc2ccccc2s1)N(O)C(N)=O (stereo not drawn) [ZILEUTON]	-2.1938
CN1C(=O)CN=C(c2ccccc2F)c2cc([N+](=O)[O-])ccc21 [FLUNITRAZEPAM]	-2.1892
CN1[C@@H]2CC[C@H]1C[C@@H](NC(=O)c1cc(Cl)cc3c1OC(C)(C)C3)C2 [ZATOSETRON]	-2.3901
C/C=C1/C[C@@H](C)[C@@](C)(O)C(=O)OCC2=CCN3CC[C@@H](OC1=O)[C@@H]23 [SENECIONINE]	-2.4772
CC(=O)O[C@H]1C(=O)[C@@]2(C)[C@H]([C@H](OC(=O)c3ccccc3)[C@]3(O)C[C@H](OC(=O)[C@H](O)[C@@H](NC(=O)c4ccccc4)c4ccccc4)C(C)=C1C3(C)C)[C@]1(OC(C)=O)CO[C@@H]1C[C@@H]2O [PACLITAXEL]	-1.2553
CN(C)CCCC1(c2ccc(F)cc2)OCc2cc(C#N)ccc21 (stereo not drawn) [CITALOPRAM]	-2.4548
CC/C(=C(\c1ccccc1)c1ccc(OCCN(C)C)cc1)c1ccccc1 [TAMOXIFEN]	-1.9912
COc1ccc(C(CN(C)C)C2(O)CCCCC2)cc1 (stereo not drawn) [VENLAFAXINE]	0.0899
Cc1nnc2n1-c1ccc(Cl)cc1C(c1ccccc1)=NC2 [ALPRAZOLAM]	-2.4232
NC(=O)N1c2ccccc2C=Cc2ccccc21 [CARBAMAZEPINE]	-2.6532
CC(=O)O[C@@]12CO[C@@H]1C[C@H](O)[C@@]1(C)C(=O)[C@H](O)C3=C(C)[C@@H](OC(=O)[C@H](O)[C@@H](NC(=O)OC(C)(C)C)c4ccccc4)C[C@@](O)([C@@H](OC(=O)c4ccccc4)[C@H]21)C3(C)C.O.O.O [DOCETAXEL]	-0.0414
CC(C)(C)c1cc(CC2SCNC2=O)cc(C(C)(C)C)c1O (stereo not drawn) [TAZOFELONE]	-0.996
CS(=O)(=O)O.C[C@@H]1C[C@H]2[C@@H]3CCC4=CC(=O)C=C[C@]4(C)C3=CC[C@]2(C)[C@H]1C(=O)CN1CCN(c2cc(N3CCCC3)nc(N3CCCC3)n2)CC1 [TIRILAZAD MESYLATE]	-0.2601
O=c1[nH]c2ccccc2n1C1CCN(CCCC(c2ccc(F)cc2)c2ccc(F)cc2)CC1 [PIMOZIDE]	-0.7559
CC[C@]1(O)C[C@@H]2CN(CCc3c([nH]c4ccccc34)[C@@](C(=O)OC)(c3cc4c(cc3OC)N(C)[C@H]3[C@@](O)(C(N)=O)[C@H](O)[C@]5(CC)C=CCN6CC[C@]43[C@@H]65)C2)C1 [VINDESINE]	-1.3927
